# In patent US9913838B2, “Methods of treating cancer using compositions comprising perillyl alcohol derivative” (NEONC TECHNOLOGIES INC., priority 2010, dated 2018):
# Where two headings read alike, the source gives them in different places.
# Experiments:
# U87 human glioma cells = test: MTT cytotoxicity assay, U87 glioma cells; conditions: for cytotoxicity (MTT assay): U87, result in words
# Text: (§1) In vitro efficacy of the present composition can be determined using methods well known in the art. For example, the cytoxicity of the present monoterpene (or sesquiterpene) and/or the therapeutic agents may be studied by MTT [3-(4,5-dimethylthiazol-2-yl)-2,5-diphenyl tetrazolium bromide] cytotoxicity assay. MTT assay is based on the principle of uptake of MTT, a tetrazolium salt, by metabolically active cells where it is metabolized into a blue colored formazon product, which can be read spectrometrically. J. of Immunological Methods 65: 55 63, 1983. The cytoxicity of the present monoterpene (or sesquiterpene) derivative and/or the therapeutic agents may be studied by colony formation assay. Functional assays for inhibition of VEGF secretion and IL-8 secretion may be performed via ELISA. Cell cycle block by the present monoterpene (or sesquiterpene) derivative and/or the therapeutic agents may be studied by standard propidium iodide (PI) staining and flow cytometry. Invasion inhibition may be studied by Boyden chambers. In this assay a layer of reconstituted basement membrane, Matrigel, is coated onto chemotaxis filters and acts as a barrier to the migration of cells in the Boyden chambers. Only cells with invasive capacity can cross the Matrigel barrier. Other assays include, but are not limited to cell viability assays, apoptosis assays, and morphological assays.
# (§2) First cytotoxicity assays were carried out after cells were treated with dimethyl-celecoxib (DMC) alone.
# (§3) Then U87, A172 and U251 cells were treated with dimethyl celecoxib bisPOH carbamate (POH−DMC) (e.g., synthesized by the method in Example 1), and the MTT cytotoxicity assays performed (FIG. 2).
# (§4) First cytotoxicity assays were carried out after cells were treated with temozolomide (TMZ) alone, the standard alkylating agent used in the treatment of malignant gliomas.
# (§5) Then TMZ-resistant glioma cell lines U87, A172 and U251 cells were treated with TMZ-POH (e.g., synthesized by the method in Example 3).
# (§6) To compare the cytotoxicity of Rolipram POH Carbamate (POH-Rolipram) (e.g., synthesized by the method in Example 5) with rolipram, […] inducing differentiation and apoptosis in glioma cells, A172, U87, U251 and LN229 human glioma cells were treated with either POH-Rolipram or rolipram for 48 hours.
# U251 human glioma cells = test: MTT cytotoxicity assay, U251 glioma cells; conditions: for cytotoxicity (MTT assay): U251, result in words
# Text: as §1, §2, §3, §4, §5, §6
# MTT cytotoxicity assays were carried out after cells were treated with the TMZ-POH conjugate. The MTT cytotoxicity assays were carried out as described in Chen T C, et al. Green tea epigallocatechin gallate enhances therapeutic efficacy of temozolomide in orthotopic mouse glioblastoma models. Cancer Lett. 2011 Mar. 28; 302(2):100-8.
# A172 human glioma cells = test: MTT cytotoxicity assay, A172 glioma cells; conditions: for cytotoxicity (MTT assay): A172, result in words
# Text: as §1, §2, §3, §4, §5, §6
# MDA-MB-468 = test: Colony formation assay, MDA-MB-468; conditions: pre-treated with O6-BG for 60 minutes; MDA-MB-468
# Protocol: (§7) Depending on the cell line (and plating efficiency), 200-350 cells were seeded into each well of a 6-well plate. […] Thereafter, the drugs were removed, fresh growth medium was added, and the cells were kept in culture undisturbed for 12-16 days, during which time the surviving cells spawned colonies of descendants. Colonies (defined as groups of >50 cells) were visualized by staining for 4 hours with 1% methylene blue (in methanol), and then were counted.
# (§8) In the case of O6-BG treatment, cells were pretreated with 10 μM O6-BG for one hour before addition of TMZ or TMZ-POH. After 24 hours, another 10 μM O6-BG was added to the medium. Another 24 hours later, drug-laced medium was removed, and fresh medium without drugs was added. Thereafter, cells remained undisturbed until staining with methylene blue.
# (§9) The cytotoxic potency of TMZ-POH, was analyzed by colony formation assay (CFA) in a variety of human breast cancer cell lines and compared to the cytotoxicity of TMZ. We used estrogen receptor positive cells MCF7 and T47D, the triple-negative lines MDA-MB-231, MDA-MB-468, and HCC-1937, and a brain-seeking variant of the 231 cell line, MDA-MB-231-br.
# MCF7 = test: Colony formation assay, MCF7; conditions: pre-treated with O6-BG for 60 minutes; MCF7
# Protocol: as §7, §8, §9
# TMZ-resistant tumors = conditions: O6-BG and TMZ, cited from earlier work
# 231-MGMT-1 = test: Colony formation assay, MGMT-transfected 231-MGMT-1; type: cell-based, human; conditions: pre-treated with O6-BG for 60 minutes; 231-MGMT-1
# Protocol: as §7, §8
# (§10) MDA-MB-231 cells were co-transfected in 6-well plates with the use of Lipofectamine 2000 (Invitrogen, Carlsbad, Calif.) according to manufacturer's instructions. 2 μg pSV2MGMT (containing the human MGMT cDNA) was combined with 0.2 μg pSV2neo (containing the neomycin gene for selection of cells in G418). Both plasmids were provided by Bernd Kaina (Mainz, Germany). Individual clones of transfected cells were selected in medium containing 750 μg/mL G418 and propagated in 250 μg/mL G418. G418 was obtained as G418 disulfate salt from Sigma-Aldrich and dissolved in PBS at 75 mg/mL. Selection medium was removed from cells several days before experimental drug treatment.
# (§11) To investigate the latter, we stably transfected MGMT-negative MDA-MB-231 cells with MGMT cDNA and isolated individual clones. […] Both clones were treated with increasing concentrations of TMZ-POH and TMZ and analyzed by CFA.
# MDA-MB-231 = test: cells
# Protocol: as §7, §8, §9
# Thus, we tested whether simply mixing the two compounds TMZ and POH could mimic the effects of the TMZ-POH conjugate. MDA-MB-231 cells were treated with the individual compounds (TMZ-POH, TMZ or POH) alone, or with an equimolar mix of TMZ plus POH, and cell survival was analyzed by CFA.
# 231-MGMT-2 = test: Colony formation assay, MGMT-transfected 231-MGMT-2; type: cell-based, human; conditions: pre-treated with O6-BG for 60 minutes; 231-MGMT-2
# Protocol: as §7, §8, §10, §11
# MGMT = test: Western blot of MGMT protein levels in MDA-MB-468 cells; type: cell-based, human; conditions: MDA-MB-468, 17 hours; in words
# Protocol: In FIG. 21C, MDA-MB-468 cells were treated with the indicated concentrations of TMZ-POH, TMZ, or O6-BG for 17 hours before harvest of cellular lysates. vh.=cells treated with vehicle only.
# (§12) Total cell lysates were analyzed by Western blot analysis as described in P. Pyrko et al. Downregulation of survivin expression and concomitant induction of apoptosis by celecoxib and its non-cyclooxygenase-2-inhibitory analog, dimethyl-celecoxib (DMC), in tumor cells in vitro and in vivo. Mol Cancer 5 (2006) 19. The primary antibodies were purchased from Cell Signaling Technology (Beverly, Mass.) or Santa Cruz Biotechnology, Inc. (Santa Cruz, Calif.) and used according to the manufacturers' recommendations. All immunoblots were repeated at least once to confirm the results.
# The major cytotoxic DNA lesion set by TMZ is methylation of O6-guanine, and it is well known that removal of this methyl group by MGMT leads to rapid degradation of the DNA repair protein.
# [1] = tested on: subcutaneous U-87 gliomas; test: Nude mouse subcutaneous glioma model, local application; type: in vivo, nude mice; conditions: local application via Q-tip daily over 8 weeks; ranking in words
# Protocol: Inhibition of tumor growth by butyryl-POH was studied in a nude mouse subcutaneous glioma model. Mice were injected with U-87 glioma cells (500,000 cells/injection) and allowed to form a palpable nodule over two weeks. Once palpable nodule was formed, the mice were treated with local application of various compounds as indicated in FIGS. 9A and 9B via a Q-tip (1 cc/application/day) over a period of 8 weeks.
# [2] = tested on: USC-02 glioma cancer stem cells; test: MTT cytotoxicity assay, USC-02 glioma cancer stem cells; type: cell-based; conditions: TMZ 0-400 uM, POH 0-2 mM, in words
# Text: Cancer Lett. 2011 Mar. 28; 302(2):100-8.
# [3] = tested on: TMZ resistant (U251TR) U251 cells; test: Colony forming assay, TMZ resistant U251TR cells; type: cell-based, human; conditions: in words
# Protocol: (§13) Colony forming assays were carried out after cells were treated with TMZ alone, POH alone, and the TMZ-POH conjugate. […] Cancer Lett. 2011 Mar. 28; 302(2):100-8.
# [4] = tested on: TMZ sensitive (U251) cells; test: Colony forming assay, TMZ sensitive U251 cells; type: cell-based, human; conditions: in words
# Protocol: as §13
# [5] = tested on: γ-H2AX, activated caspase 7 and cleaved PARP; test: DNA damage and cell death marker analysis in MDA-MB-231 cells (Western blot); type: cell-based, human; conditions: MDA-MB-231, 20 μM, after 5 days of treatment; in words
# Protocol: FIGS. 25A-25B show DNA damage and cell death marker analysis, where MDA-MB-231 cells were used for Western blot analysis of expression levels for markers of DNA damage (γ-H2AX) and cell death (activated caspase 7 and cleaved PARP). In FIG. 25A, cells were treated with 15 μM TMZ-POH and harvested every 24 hours up to 6 days; control cells remained untreated, or received vehicle (vh.) only. In FIG. 25B, cells were treated with 20 μM of either TMZ-POH, TMZ, or POH individually, or with 20 μM TMZ combined with 20 μM POH (TMZ+POH) and harvested after 24 hours or 5 days; control cells remained untreated, or received vehicle (vh.) only. In the case of caspase 7, only the activated (cleaved) form is shown (cl. C-7).
# as §12
# It is known that GBM cells treated with physiological concentrations of TMZ (<100 μM) in vitro can survive for several (5-7) days seemingly unaffected before substantial cell death becomes apparent. We observed a similar phenotype when breast cancer cell lines were treated with TMZ-POH, i.e., cell cultures only began to deteriorate approximately a week after the onset of drug treatment. In order to characterize TMZ-POH-induced cell death in greater detail, we treated MDA-MB-231 cells with 15 μM of the drug and collected cell lysates daily over the course of 6 days. The lysates were analyzed by Western blot for the presence of two apoptosis markers, cleaved (i.e. activated) caspase 7 and cleaved PARP-1 (poly ADP-ribose polymerase-1), along with the DNA damage marker γ-H2AX.
# As shown in FIGS. 20A-20B above, an equimolar combination of TMZ+POH was unable to achieve the same potency in blocking colony survival as the TMZ-POH conjugate. […] We treated cells with the same concentration (20 μM) of TMZ-POH, TMZ, POH, or TMZ combined with POH (TMZ+POH), and analyzed the induction of γ-H2AX, activated caspase 7, and cleaved PARP. […] Thus, the results from the cell survival assay (FIGS. 20A-20B) correlated closely with the effects of these compounds on DNA damage and apoptosis markers (FIG. 25B), and in all cases TMZ-POH clearly generated the strongest anticancer impact.
# LN229 human glioma cells = test: cells
# Text: as §1, §6
compound,measurement,setting,value
C=C(C)C1CC=C(COC(=O)N(C(=O)OCC2=CCC(C(=C)C)CC2)S(=O)(=O)c2ccc(-n3nc(C(F)(F)F)cc3-c3cc(C)ccc3C)cc2)CC1 (centres unmarked) [POH−DMC],cytotoxicity (MTT assay),U87 human glioma cells,much better cytotoxicity than DMC alone
same,cytotoxicity (MTT assay),U251 human glioma cells,much better cytotoxicity than DMC alone
same,cytotoxicity (MTT assay),A172 human glioma cells,much better cytotoxicity than DMC alone
"Nc1nc(OCc2ccccc2)c2nc[nH]c2n1 [O6-BG, O6-benzylguanine, reference compound]",effect of O6-BG on cytotoxic outcome of TMZ-POH and TMZ treatment,MDA-MB-468,increased the cytotoxic outcome
same,effect of O6-BG on cytotoxic outcome of TMZ-POH and TMZ treatment,MCF7,increased the cytotoxic outcome
same,fraction of patients with restored TMZ-sensitivity,"TMZ-resistant tumors; patients with GBM, no significant effect",3%
same,fraction of patients with restored TMZ-sensitivity,TMZ-resistant tumors; patients with anaplastic glioma,16%
same,effect of O6-BG on toxicity of TMZ-POH and TMZ,231-MGMT-1,greatly enhanced toxicity
same,effect of O6-BG on survival of cells treated with TMZ-POH or TMZ,"MDA-MB-231; pre-treated with O6-BG for 60 minutes, MDA-MB-231",had no effect
same,effect of O6-BG on toxicity of TMZ-POH and TMZ,231-MGMT-2,greatly enhanced toxicity
same,MGMT protein levels,MGMT,strongly decreases MGMT protein levels
C=C(C)C1CC=C(COC(=O)CCC)CC1 (centres unmarked) [Butyryl-POH],inhibition of tumor growth,[1],greatest inhibition of tumor growth
"C=C(C)[C@@H]1CC=C(CO)CC1 [POH, Perillyl alcohol]",cytotoxicity (MTT assay),[2],demonstrated cytotoxicity
same,cytotoxicity (colony forming assay),[3],demonstrated cytotoxicity
same,concentrations required in order to become cytotoxic,MDA-MB-231,above 100 μM
same,IC50,"MDA-MB-231; Homo sapiens, MDA-MB-231, 48 h, read-out: IC50 (concentration required to decrease colony formation by 50%)",~700 µM
same,cytotoxicity (colony forming assay),[4],demonstrated cytotoxicity
same,"induction of γ-H2AX, activated caspase 7, and cleaved PARP",[5],inactive
"COc1ccc(C2CNC(=O)C2)cc1OC1CCCC1 (centres unmarked) [rolipram, reference compound]",IC50,"LN229 human glioma cells; Homo sapiens, LN-229, 48 h",> 100 µM
same,IC50,"U87 human glioma cells; Homo sapiens, U-87 MG, 48 h",> 1000 µM
same,IC50,"U251 human glioma cells; Homo sapiens, U-251, 48 h",170 µM
same,plateau cytotoxicity,U251 human glioma cells; U251 cells,60%
same,IC50,"A172 human glioma cells; Homo sapiens, A 172, 48 h",~1000 µM
"C=C(C)C1CC=C(COC(=O)N2CC(c3ccc(OC)c(OC4CCCC4)c3)CC2=O)CC1 (centres unmarked) [POH-rolipram, 4-(3-cyclopentyloxy-4-methoxyphenyl)-2-oxo-pyrrolidine-1-carboxylic acid 4-isopropenyl cyclohex-1-enylmethyl ester]",cytotoxicity (MTT assay),LN229 human glioma cells,substantially higher kill rates compared to rolipram alone
same,IC50,"LN229 human glioma cells; LN229 cells, 48 hours",100 µM
same,cytotoxicity (MTT assay),U87 human glioma cells,substantially higher kill rates compared to rolipram alone
same,IC50,"U87 human glioma cells; U-87 cells, 48 hours",180 µM
same,cytotoxicity (MTT assay),U251 human glioma cells,substantially higher kill rates compared to rolipram alone
same,IC50,"U251 human glioma cells; U251 cells, 48 hours",50 µM
same,cytoxicity,"U251 human glioma cells; U251 cells, at 100 uM",~100%
same,cytotoxicity (MTT assay),A172 human glioma cells,substantially higher kill rates compared to rolipram alone
same,IC50,"A172 human glioma cells; A-172 cells, 48 hours",50 µM
